Like-named read-outs stand apart in the source and are kept apart here.
Tests used:
[1] = target: T1, glucosylceramide synthase (GCS) (Mus musculus, UniProt O88693); test: GCS activity in living macrophage  cells (C6-NBD lipid, TLC readout); type: cell-based
T1 construct: IC50 values for GCS activity were measured using living cells; endogenous in cells
T1 sequence (O88693 1-394): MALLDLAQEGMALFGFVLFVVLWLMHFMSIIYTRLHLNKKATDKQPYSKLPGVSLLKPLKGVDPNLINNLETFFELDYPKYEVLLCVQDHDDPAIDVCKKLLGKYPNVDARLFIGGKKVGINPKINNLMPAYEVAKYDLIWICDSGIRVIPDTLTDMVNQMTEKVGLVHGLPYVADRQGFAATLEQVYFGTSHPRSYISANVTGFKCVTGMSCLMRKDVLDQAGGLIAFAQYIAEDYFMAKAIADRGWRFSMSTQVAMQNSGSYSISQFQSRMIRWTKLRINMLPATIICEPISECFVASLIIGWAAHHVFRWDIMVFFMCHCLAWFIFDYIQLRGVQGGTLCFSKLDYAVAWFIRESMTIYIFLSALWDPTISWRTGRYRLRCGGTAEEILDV

GBA1 = target: T2, GBA1 (Homo sapiens, UniProt P04062, R534H); test: GBA1 activity, recombinant human enzyme (Cerezyme), 4-MU-β-glucoside substrate; type: biochemical;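 also: enzyme activity read out as fluorescence of the 4-MU released from the substrate, measured on a fluorimeter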
T2 construct: purchased Sanofi (Cerezyme)
T2 sequence (P04062 40-536 R534H): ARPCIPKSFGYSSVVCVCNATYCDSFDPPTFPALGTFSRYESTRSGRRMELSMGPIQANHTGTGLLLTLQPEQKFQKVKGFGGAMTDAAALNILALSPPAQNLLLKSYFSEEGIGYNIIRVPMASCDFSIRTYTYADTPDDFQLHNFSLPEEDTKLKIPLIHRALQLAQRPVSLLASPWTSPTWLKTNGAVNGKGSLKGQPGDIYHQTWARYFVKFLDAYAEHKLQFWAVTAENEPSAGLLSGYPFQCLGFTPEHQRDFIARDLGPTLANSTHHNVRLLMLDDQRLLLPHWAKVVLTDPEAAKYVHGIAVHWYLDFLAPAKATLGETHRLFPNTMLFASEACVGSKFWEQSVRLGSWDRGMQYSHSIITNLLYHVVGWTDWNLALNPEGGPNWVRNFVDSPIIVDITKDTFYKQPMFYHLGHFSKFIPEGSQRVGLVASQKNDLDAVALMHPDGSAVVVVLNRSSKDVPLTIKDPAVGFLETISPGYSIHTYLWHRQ

GBA2 = target: T3, GBA2 (Homo sapiens, UniProt Q9HCG7); test: GBA2 activity, membrane fraction from Gaucher spleen, 4-MU-β-glucoside substrate; type: biochemical;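 also: Read-out is fluorimetric quantification of released 4-MU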
T3 construct: measured using a membrane fraction obtained from Gaucher spleen; from tissue; host or cells: membrane fraction of Gaucher spleen, pre-treated with conduritol B-epoxide
T3 sequence (Q9HCG7 1-927): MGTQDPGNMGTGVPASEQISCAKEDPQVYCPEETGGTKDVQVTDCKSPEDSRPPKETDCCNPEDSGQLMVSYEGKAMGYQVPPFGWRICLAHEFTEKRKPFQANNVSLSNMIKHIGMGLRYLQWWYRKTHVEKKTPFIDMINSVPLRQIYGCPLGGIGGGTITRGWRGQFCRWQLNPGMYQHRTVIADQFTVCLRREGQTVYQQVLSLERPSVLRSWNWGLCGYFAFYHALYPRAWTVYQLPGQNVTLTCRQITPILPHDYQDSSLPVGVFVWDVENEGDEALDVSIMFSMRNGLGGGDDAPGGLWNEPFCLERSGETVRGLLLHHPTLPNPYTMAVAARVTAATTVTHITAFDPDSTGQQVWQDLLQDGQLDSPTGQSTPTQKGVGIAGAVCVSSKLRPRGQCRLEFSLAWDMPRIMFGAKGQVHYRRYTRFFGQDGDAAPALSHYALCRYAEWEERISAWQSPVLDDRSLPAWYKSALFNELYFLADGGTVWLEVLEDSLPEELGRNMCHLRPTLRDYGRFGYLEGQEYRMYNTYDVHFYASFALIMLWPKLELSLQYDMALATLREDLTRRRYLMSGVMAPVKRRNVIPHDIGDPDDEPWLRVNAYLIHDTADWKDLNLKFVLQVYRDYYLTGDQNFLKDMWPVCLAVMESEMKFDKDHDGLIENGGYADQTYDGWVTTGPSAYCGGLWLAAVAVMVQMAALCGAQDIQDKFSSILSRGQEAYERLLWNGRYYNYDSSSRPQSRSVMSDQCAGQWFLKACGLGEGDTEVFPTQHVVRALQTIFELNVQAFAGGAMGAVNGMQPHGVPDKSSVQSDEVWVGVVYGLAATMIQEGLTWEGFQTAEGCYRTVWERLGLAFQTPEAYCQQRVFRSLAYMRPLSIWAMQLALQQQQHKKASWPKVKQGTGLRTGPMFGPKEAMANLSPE

[2] = D-gluco configuration series, Example 3, read-out: GCS [nM] (IC50)
[3] = D-gluco configuration series, Example 3
[4] = L-ido configuration series, Example 4
[5] = L-ido configuration series, Example 4, read-out: GCS [nM] (IC50)

Compound | IC50 [1, 2] [nM] | IC50 ([1]; read-out: inhibitory potency towards GCS, expressed as IC50) [nM] | IC50 (GBA1) [nM] | IC50 ([1]; read-out: GCS [nM] (IC50)) | IC50 (GBA2; [3]) [nM] | IC50 (GBA2) [nM] | IC50 (GBA2; [4]) [nM] | IC50 [1, 5] [nM]
C[C@H](OCCCCCN1C[C@H](O)[C@@H](O)[C@H](O)[C@H]1CO)c1ccc(-c2ccccc2)cc1 [Compound 4] | 50 | 100 | 10000 |  |  |  |  | 
C[C@@H](OCCCCCN1C[C@H](O)[C@@H](O)[C@H](O)[C@H]1CO)c1ccc(-c2ccccc2)cc1 [Compound 5] | 40 |  | 10000 |  |  |  |  | 
OC[C@@H]1[C@@H](O)[C@H](O)[C@@H](O)CN1CCCCCOCc1ccc(-c2ccccc2)cc1F [Compound 6] |  |  | 250 | 25 |  |  |  | 
OC[C@@H]1[C@@H](O)[C@H](O)[C@@H](O)CN1CCCCCOCc1ccc(-c2ccccc2)c(F)c1 [Compound 7] |  |  | 200 | 25 |  |  |  | 
OC[C@@H]1[C@@H](O)[C@H](O)[C@@H](O)CN1CCCCCOCc1ccc(-c2ccccc2)cc1C(F)(F)F [Compound 8] |  |  | 200 | 25 | 0.12 |  |  | 
OC[C@@H]1[C@@H](O)[C@H](O)[C@@H](O)CN1CCCCCOCc1ccc(-c2ccccc2)c(C(F)(F)F)c1 [Compound 9] |  |  | 100 | 25 |  |  |  | 
OC[C@@H]1[C@@H](O)[C@H](O)[C@@H](O)CN1CCCC(F)(F)COCc1ccc(-c2ccccc2)cc1 [Compound 10] |  |  | 12500 | 15 |  | 2 |  | 
OC[C@@H]1[C@@H](O)[C@H](O)[C@@H](O)CN1CC(F)(F)CCCOCc1ccc(-c2ccccc2)cc1 [Compound 11] |  |  | 500 | 200 |  | 2 |  | 
OC[C@@H]1[C@@H](O)[C@H](O)[C@@H](O)CN1CCCCCOCc1ccc(-c2ccccc2)cn1 [Compound 12] |  |  | 1500 | 200 | 3 |  |  | 
OC[C@@H]1[C@@H](O)[C@H](O)[C@@H](O)CN1CCCCCOCc1cccc(-c2ccccc2)c1 [Compound 13] |  |  | 300 | 75 | 2 |  |  | 
OC[C@@H]1[C@@H](O)[C@H](O)[C@@H](O)CN1CCCCCOCc1ccccc1-c1ccccc1 [Compound 14] |  |  | 1250 | 50 | 3 |  |  | 
OC[C@@H]1[C@@H](O)[C@H](O)[C@@H](O)CN1CCCCCOCc1ccc(-c2ccc(F)nc2)cc1 [Compound 15] |  |  | 3000 | 750 | 5 |  |  | 
OC[C@@H]1[C@@H](O)[C@H](O)[C@@H](O)CN1CCCCCOCc1ccc(-c2ccnc(F)c2)cc1 [Compound 16] |  |  | 2000 | 150 | 4 |  |  | 
OC[C@@H]1[C@@H](O)[C@H](O)[C@@H](O)CN1CCCCCOCc1ccc(-c2cccnc2)cc1 [Compound 17] |  |  | 3000 | 200 | 10 |  |  | 
OC[C@@H]1[C@@H](O)[C@H](O)[C@@H](O)CN1CCCCCOCc1ccc(-c2ccncc2)cc1 [Compound 18] | 2000 |  | 2000 |  | 10 |  |  | 

The next lines start with the values.

IC50 [1, 2] [nM] | IC50 ([1]; read-out: inhibitory potency towards GCS, expressed as IC50) [nM] | IC50 (GBA1) [nM] | IC50 ([1]; read-out: GCS [nM] (IC50)) | IC50 (GBA2; [3]) [nM] | IC50 (GBA2) [nM] | IC50 (GBA2; [4]) [nM] | IC50 [1, 5] [nM] | Compound
 |  | 3000 | 25 |  | 10 |  |  | OC[C@@H]1[C@@H](O)[C@H](O)[C@@H](O)CN1CCCCCOCc1ccc(-c2ccc3c(c2)OCCCO3)cc1 [Compound 19]
 |  | 3000 | 25 |  | 10 |  |  | OC[C@@H]1[C@@H](O)[C@H](O)[C@@H](O)CN1CCCCCOCc1ccc(-c2ccc3c(c2)OCCO3)cc1 [Compound 20]
 |  | 2500 | 25 |  | 10 |  |  | OC[C@@H]1[C@@H](O)[C@H](O)[C@@H](O)CN1CCCCCOCc1ccc(-c2ccc3c(c2)OCO3)cc1 [Compound 21]
 |  | 800 | 20 | 15 |  |  |  | OC[C@@H]1[C@@H](O)[C@H](O)[C@@H](O)CN1CCCCCOCc1ccc(-c2cc(C(F)(F)F)cc(C(F)(F)F)c2)cc1 [Compound 22]
 |  | 800 | 20 | 10 |  |  |  | OC[C@@H]1[C@@H](O)[C@H](O)[C@@H](O)CN1CCCCCOCc1ccc(-c2ccc(C(F)(F)F)cc2)cc1 [Compound 23]
 |  | 500 | 25 | 2 |  |  |  | OC[C@@H]1[C@@H](O)[C@H](O)[C@@H](O)CN1CCCCCOCc1ccc(-c2ccc(Cl)cc2)cc1 [Compound 24]
 |  | 600 | 74 | 2 |  |  |  | OC[C@@H]1[C@@H](O)[C@H](O)[C@@H](O)CN1CCCCCOCc1ccc(-c2ccccc2F)cc1 [Compound 25]
 |  | 250 | 25 |  | 2 |  |  | OC[C@@H]1[C@@H](O)[C@H](O)[C@@H](O)CN1CCCCCOCc1ccc(-c2cccc(F)c2)cc1 [Compound 26]
 |  | 400 | 25 | 1 |  |  |  | OC[C@@H]1[C@@H](O)[C@H](O)[C@@H](O)CN1CCCCCOCc1ccc(-c2ccc(F)cc2)cc1 [Compound 27]
 |  | 600 | 150 | 5 |  |  |  | N#Cc1ccccc1-c1ccc(COCCCCCN2C[C@H](O)[C@@H](O)[C@H](O)[C@H]2CO)cc1 [Compound 28]
50 |  | 700 |  | 2 |  |  |  | N#Cc1cccc(-c2ccc(COCCCCCN3C[C@H](O)[C@@H](O)[C@H](O)[C@H]3CO)cc2)c1 [Compound 29]
 |  | 350 | 150 | 3 |  |  |  | N#Cc1ccc(-c2ccc(COCCCCCN3C[C@H](O)[C@@H](O)[C@H](O)[C@H]3CO)cc2)cc1 [Compound 30]
 |  | 600 | 50 |  | 0.7 |  |  | COc1ccccc1-c1ccc(COCCCCCN2C[C@H](O)[C@@H](O)[C@H](O)[C@H]2CO)cc1 [Compound 31]
 |  | 2500 | 150 | 20 |  |  |  | COc1cccc(-c2ccc(COCCCCCN3C[C@H](O)[C@@H](O)[C@H](O)[C@H]3CO)cc2)c1 [Compound 32]
 |  | 2500 | 25 | 10 |  |  |  | COc1ccc(-c2ccc(COCCCCCN3C[C@H](O)[C@@H](O)[C@H](O)[C@H]3CO)cc2)cc1 [Compound 33]
25 |  | 70 |  | 0.5 |  |  |  | Cc1ccccc1-c1ccc(COCCCCCN2C[C@H](O)[C@@H](O)[C@H](O)[C@H]2CO)cc1 [Compound 34]
 |  | 250 | 100 | 2 |  |  |  | Cc1cccc(-c2ccc(COCCCCCN3C[C@H](O)[C@@H](O)[C@H](O)[C@H]3CO)cc2)c1 [Compound 35]
 |  | 250 | 100 | 3 |  |  |  | Cc1ccc(-c2ccc(COCCCCCN3C[C@H](O)[C@@H](O)[C@H](O)[C@H]3CO)cc2)cc1 [Compound 36]
 |  | 10000 |  |  |  | 2 | 30 | C[C@H](OCCCCCN1C[C@H](O)[C@@H](O)[C@H](O)[C@@H]1CO)c1ccc(-c2ccccc2)cc1 [Compound 38]
 |  | 10000 |  |  |  | 1 | 40 | C[C@@H](OCCCCCN1C[C@H](O)[C@@H](O)[C@H](O)[C@@H]1CO)c1ccc(-c2ccccc2)cc1 [Compound 39]
 |  | 500000 |  |  |  | 2 |  | OC[C@H]1[C@@H](O)[C@H](O)[C@@H](O)CN1CC(F)(F)CCCOCc1ccc(-c2ccccc2)cc1 [Compound 42]

Reference: patent publication US10590082B2, “N-(5-((aryl or heteroaryl)methyloxy)pentyl)-substituted iminosugars as inhibitors of glucosylceramide synthase” (Academisch Medisch Centrum, priority 2014, dated 2020)
